Reference: patent publication US20090291462A1, “Detection or Quantification of Aggrecan and its Fragments” (Immunodiagnostic Systems Nordic A/S, priority 2005, published 2009)

Columns and labels:
Assay type in all cases: cell-based
[1] = system: Bovine articular cartilage explants; assay: G2 release into supernatants of bovine articular cartilage explants (F78 sandwich assay); conditions: FIG. 5; for release of G2 on cytokine stimulation: OSM and TNF-α together, decreases after day 5, background after day 12
Procedure: A sandwich assay was developed using monoclonal antibodies as described above. Streptavidin plates were incubated for 1 hour, 300 RPM, 20° C. with 100 μl 600 ng/ml biotinylated F78 monoclonal antibody against the G2 domain of aggrecan.
After incubating the plates for 1 hour, plates were washed 5 times with washing buffer (0.15 mol/l NaCl, 0.05% (v/v) Tween 20). Subsequently 100 μl standards (purified bovine aggrecan 0.05 ng/ml-10 ng/ml, or pre-diluted explant supernatants in PBS-BTB were added, and the plates were incubated for 1 hour, 300 RPM, 20° C. After the incubation period, the plates were washed 5 times as described previously, and 500 ng/ml horseradish Peroxidase (POD)-labelled F78 antibody was added. After incubating for 1 hour, 300 RPM, 20° C., the plate was washed 5 times, and 100 μl of TMB substrate was added, and the plate was incubated for 15 minutes, 300 RPM, 20° C. in the dark before 150 μl 0.18 M H2SO4 was added. The absorbance was measured immediately at 450 nm.
(§1) The G2 and the ^342FFGVG-G2 test described above were evaluated using conditioned medium from cartilage explants. Bovine articular cartilage was obtained from heifer stifle joints. Pieces of cartilage (16±4 mg) were placed in 96 well plates and incubated at 37° C. with 5% CO2 and shaking (50 rpm). Serum-free D-MEM medium with or without the cytokines oncostatin M and tumour necrosis factor α (TNFα) or the MMP inhibitor GM6001 was used. As negative control, cartilage was placed in chryo-tubes, frozen in liquid N2, and thawed at 37° C. in water-bath for three repeated freeze-thaw cycles. The explants culture medium was replaced every 3rd day, and supernatants were stored at −20° C. until further analysis.

[2] = system: Bovine articular cartilage explants; assay: ^342FFGVG-G2 release into supernatants of bovine articular cartilage explants (AF-28/F78 sandwich assay); conditions: FIG. 5; for release of ^342FFGVG-G2 on cytokine stimulation: OSM and TNF-α together, after day 12
Procedure: Streptavidin plates were incubated for 1 hour, 300 RPM, 20° C. with 100 μl 1500 ng/ml biotinylated AF-28 monoclonal antibody against the epitope ^342FFGVG-G2. Antibody dilutions were made in PBS-BTB buffer. After incubating the plates for 1 hour, plates were washed 5 times with washing buffer (0.15 mol/l NaCl, 0.05% (v/v) Tween 20). Subsequently 50 μl standards (MMP-13 digested purified porcine aggrecan 47-3000 ng/ml or pre-diluted explant supernatants in PBS-BTB were added, and the plates were incubated for 1 hour, 300 RPM, 20° C. After the incubation period, the plates were washed 5 times as described previously, and 500 ng/ml horseradish Peroxidase (POD)-labelled F78 antibody was added. After incubating for 1 hour, 300 RPM, 20° C., the plates were washed 5 times, 100 μl of TMB substrate was added, and the plates were incubated for 15 minutes, 300 RPM, 20° C. in the dark before 150 μl 0.18 M H2SO4 was added. The absorbance was measured immediately after at 450 nm.
as §1

[3] = system: Bovine articular cartilage explants; assay: CS846 release into supernatants of bovine articular cartilage explants (IBEX CS846 competitive ELISA kit); conditions: FIG. 6; for release of CS846 on cytokine stimulation: OSM and TNFα together
Procedure: as §1
The supernatants evaluated above was also measured for CS846 (IBEX CS846 competitive ELISA kit).

Which “release of G2 on addition of the MMP inhibitor” value ([1]; explants treated with OSM and TNF-α plus GM6001) does the source give for `CNC(=O)[C@H](Cc1c[nH]c2ccccc12)NC(=O)[C@@H](CC(=O)NO)CC(C)C` [GM6001] here?
Its value is “did not inhibit”.

What about the “release of ^342FFGVG-G2 in the presence of the MMP inhibitor” value ([2]; explants treated with OSM and TNF-α concomitantly with GM6001) of the same molecule?
Its value is “completely abrogated”.

And the “CS846 release during inhibition of MMP activity” value ([3]; explants with GM6001)?
Its value is “strong, initial elevation”.

With tumour necrosis factor α [TNF-α] as the molecule, how does the “release of G2 on cytokine stimulation” value [1] read?
The value was “initial elevation”.

What about the “release of ^342FFGVG-G2 on cytokine stimulation” value [2] of the same molecule?
Its value is “stimulate an increase”.

And the “release of CS846 on cytokine stimulation” value [3]?
Its value is “do not stimulate release”.

B1: oncostatin M (protein, UniProt P13725 26-221, looked up)
Oncostatin-M: AAIGSCSKEYRVLLGQLQKQTDLMQDTSRLLDPYIRIQGLDVPKLREHCRERPGAFPSEETLRGLGRRGFLQTLNATLGCVLHRLADLEQRLPKAQDLERSGLNIEDLEKLQMARPNILGLRNNIYCMAQLLDNSDTAEPTKAGRGASQPPTPTPASDAFQRKLEGCRFLHGYHRFMHSVGRVFSKWGESPNRSRR
notes: cytokine oncostatin M used to stimulate cartilage explants
B1 was tested. Which “release of G2 on cytokine stimulation” value [1] did it give?
Its value is “initial elevation”.

What about the “release of ^342FFGVG-G2 on cytokine stimulation” value [2] of the same molecule?
The value was “stimulate an increase”.

What about the “release of CS846 on cytokine stimulation” value [3] of the same molecule?
Its value is “do not stimulate release”.
